This assay addresses Inosine-5'-monophosphate dehydrogenase (IMPDH) (Homo sapiens, UniProt P20839+P12268). The assay is described as follows: Inhibitory activity against (IMPDH) inosine 5'-monophosphate dehydrogenase. Format: protein assay.

As usually defined, the IC50 is the midpoint of a concentration-inhibition curve. Turning to `COc1cc(NC(=O)C(=O)NC(C)(C)C)ccc1-c1cncs1`, the IC50 came to 0.91 µM.
As for `COc1ccc(C#N)c2ccccc12`, the IC50 was 31 µM.
The figure for `Cc1ncoc1-c1ccc(NC(=O)C(=O)NC(C)(C)C)cc1` is 14 µM; for `CCCCc1ncoc1-c1ccc(NC(=O)C(=O)NC(C)(C)C)cc1OC` it is 27 µM; for `COc1ccc(NC(=O)C(=O)NC(C)(C)C)cc1OC` it is 21 µM.
`COc1ccc2[nH]cc(C(=O)CSc3ccncc3)c2c1` gave an IC50 of 32 µM.
The figure for `N#Cc1c[nH]c2ccccc12` is 32 µM; for `COc1cc(NC(=O)C(=O)NC(C)(C)C)ccc1-c1ccc[nH]1` it is 2.4 µM; for `Cc1cc2c(cc1C)C(=O)C(C#N)CO2` (centres undefined) it is 88 µM.
The figure for `Oc1cccc2[nH]c3ccccc3c12` is 54 µM.
The figure for `COc1cc(NC(=O)C(=O)NC(C)(C)C)ccc1-c1ocnc1Cc1ccccc1` is 35 µM.
`COc1ccc(NC(=O)C(=O)NC(C)(C)C)cc1-c1cnco1` had an IC50 of 16 µM.
The figure for `CC(C)(C)NC(=O)C(=O)Nc1ccc(-c2cnco2)c(C(F)(F)F)c1` is 18 µM; for `Cc1cc(NC(=O)C(=O)NC(C)(C)C)ccc1-c1cnco1` it is 0.2 µM.
The figure for `CC(C)(C)NC(=O)C(=O)Nc1ccc(-c2cnco2)cc1` is 20 µM; for `CC(C)(C)NC(=O)C(=O)Nc1ccc(-c2cnco2)c(Cl)c1` it is 0.18 µM.
The figure for `COc1cc(NC(=O)C(=O)NC(C)(C)C)ccc1-c1cnco1` is 0.04 µM; for `CC(=O)c1ccc(O)cc1C` it is 620 µM.
Consider `COc1cc(NC(=O)C(=O)NC(C)(C)C)ccc1-c1nc[nH]n1`, for which the IC50 was 15 µM.
In the case of `COc1cc(NC(=O)C(=O)NC(C)(C)C)ccc1-c1ocnc1C` it was 0.43 µM; in that of `CC(C)(C)NC(=O)C(=O)Nc1ccc(-c2cnco2)c(O)c1`, 4.4 µM.
As to `N#Cc1ccc2[nH]ccc2c1`, the IC50 was found to be 99 µM.
Consider `CCc1cc(NC(=O)C(=O)NC(C)(C)C)ccc1-c1cnco1`, for which the IC50 was 1.2 µM.
In the case of `COc1cc(N)ccc1-c1cnco1` it was 19 µM; in that of `COc1cc(NC(=O)C(=O)NC(C)(C)C)ccc1-c1ccco1`, 8.1 µM; in that of `CCOc1cc(NC(=O)C(=O)NC(C)(C)C)ccc1-c1cnco1`, 1.3 µM.
With `CC(C)(C)NC(=O)C(=O)Nc1ccc(-c2cnco2)c(F)c1`, the IC50 was 0.73 µM.
In turn, `Nc1ccnc2cc(Cl)ccc12` gave an IC50 of 168 µM.
In the case of `COc1cc(NC(=O)C(=O)NC(C)(C)C)ccc1-c1cocn1` it was 0.47 µM.

The values are drawn from ChEMBL document CHEMBL1136381, “Discovery of novel low molecular weight inhibitors of IMPDH via virtual needle screening” (Bioorg Med Chem Lett, 2003).
